Reference: patent US20100099634A1, “MACROLIDE COMPOUNDS ENDOWED WITH ANTIINFLAMMATORY ACTIVITY” (Zambon S.p.A, priority 2006, published 2010)

Assays:
[1] = tested on: oedema in mouse ear induced with PMA (phorbol myristate acetate); test: Acute contact dermatitis: TPA-induced ear oedema in mice; format: in vivo; conditions: CD1 mice, 500 μg/ear topical in TPDS 30 minutes before 0.01% TPA, ear weight six hours later, vs TPA alone
Protocol: The antiinflammatory activity was evaluated by means of inhibition of the oedema in mouse ear induced with PMA (phorbol myristate acetate). A) Acute Contact Dermatitis Groups of 5 CD1 mice (18-24 g) were used. All the macrolide derivatives were dissolved in Trans-phase Delivery System (TPDS), a carrier containing 10% benzyl alcohol, 40% acetone and 50% isopropanol. 15 microlitres of the compounds (500 μg/ear), dissolved in TPDS, were applied topically to the inner surface of an ear; 30 minutes later, 12 microlitres of a solution of tetradecanoylphorbol acetate (TPA) at a concentration of 0.01% dissolved in acetone were applied to the same area. Six hours later, the animals were sacrificed by inhalation of CO2. The degree of oedema was calculated by subtracting the weight of a specified section of the untreated ear from that of the contralateral treated ear. To determine the degree of remission of the oedema, the weight difference of the groups treated with TPA+macrolides was then compared with the groups treated with TPA alone. The activity of the macrolides was measured by using the modified method of Zunic et al. (1998): MDL (Lysyl) GDP, a non-toxic muramyl dipeptide derivative inhibits cytokine production by activated macrophages and protects mice from phorbol ester- and oxazolone-induced inflammation (J. Invest. Dermatol., 111(1), 77-82).

[2] = tested on: Escherichia coli (ATCC 25922); test: Antibiotic activity by turbidimetric assay of bacterial growth; format: cell-based; conditions: for IC20: concentration that inhibits growth of E. coli ATCC 25922 by 20%; for IC20 / IC50 / IC80: maximum test concentration 100 μM, mean of at least three incubation times; for IC50: concentration that inhibits growth of E. coli ATCC 25922 by 50%; for IC80: concentration that inhibits growth of E. coli ATCC 25922 by 80%; for activity towards bacterial growth (in words): turbidimetric assay, strains sensitive to erythromycin and telithromycin

IC50 [2] [µM] | SMILES | Oedema (% inhibition) [1] [%] | IC20 [2] [nM] | IC80 [2] [µM] | IC20 ([2]; Escherichia coli, ATCC25922) [nM] | IC50 ([2]; Escherichia coli, ATCC25922) [µM] | IC80 ([2]; Escherichia coli, ATCC25922) [µM] | activity towards bacterial growth (in words) [2]
 | CC[C@H]1OC(=O)[C@H](C)[C@@H](O[C@H]2C[C@@](C)(OC)[C@@H](O)[C@H](C)O2)[C@H](C)[C@@H](O[C@@H]2O[C@H](C)C[C@H](N(C)C)[C@H]2O)[C@](C)(O)C[C@@H](C)CN(C)[C@H](C)[C@@H](O)[C@]1(C)O [Azithromycin] | 40 |  |  |  |  |  | 
> 100 | CCC1OC(=O)C(C)C(=O)C(C)C(OC2OC(C)CC(N(C)C(C)=O)C2O)C(C)(OC)CC(C)C(=O)C(C)C2N(CCCCn3cnc(-c4cccnc4)c3)C(=O)OC12C (stereo not shown) [Compound 1, 3′-demethyl-3′-acetyltelithromycin] | 81.7 | > 100000 | > 100 |  |  |  | 
> 100 | CC[C@H]1OC(=O)[C@H](C)C(=O)[C@H](C)[C@@H](O[C@@H]2O[C@H](C)C[C@H](N(C)C(=O)c3ccccc3)[C@H]2O)[C@](C)(OC)C[C@@H](C)C(=O)[C@H](C)[C@H]2N(CCCCn3cnc(-c4cccnc4)c3)C(=O)O[C@]12C [Compound 2, 3′-demethyl-3′-benzoyltelithromycin] | 81.8 | > 100000 | > 100 |  |  |  | 
 | CC[C@H]1OC(=O)[C@H](C)[C@@H](O[C@H]2C[C@@](C)(OC)[C@@H](O)[C@H](C)O2)[C@H](C)[C@@H](O[C@@H]2O[C@H](C)C[C@H](N(C)C)[C@H]2O)[C@](C)(O)C[C@@H](C)C(=O)[C@H](C)[C@@H](O)[C@]1(C)O [Erythromycin] | 42 |  |  | 3000 | 7.8 | 24.3 | substantial inhibition of the bacterial development
 | CC[C@H]1OC(=O)[C@H](C)C(=O)[C@H](C)[C@@H](O[C@@H]2O[C@H](C)C[C@H](N(C)C)[C@H]2O)[C@](C)(OC)C[C@@H](C)C(=O)[C@H](C)[C@H]2N(CCCCn3cnc(-c4cccnc4)c3)C(=O)O[C@]12C [Telithromycin] | 79.7 |  |  | 2700 | 5.7 | 14.9 | substantial inhibition of the bacterial development
